US20230322767A1, “ARYL SUBSTITUTED PYRROLO-PYRIDINONES AND THERAPEUTIC USES THEREOF” (Bayer Aktiengesellschaft, priority 2020, published 2023)
Values joined by “and” are separate entries in the source; they are usually repeats but may differ in a detail not shown here. Equal entries are not always repeated.

target: wild-type Epidermal Growth Factor Receptor (EGFR) (Homo sapiens (Human), UniProt P00533); test: WT-EGFR Kinase Assay (TR-FRET, 2 mM ATP); type: biochemical; conditions: EGFR Wildtyp 2 mM ATP IC50 [mol/l] (median), median or individual measurements
Text: Inhibitory activity of compounds of the present invention against wild-type Epidermal Growth Factor Receptor (EGFR) was quantified employing the TR-FRET based EGFR assay as described in the following paragraphs.
Recombinant fusion protein of N-terminal Glutathion-S-Transferase (GST) and a fragment of human EGFR (amino acids R669 to A1210), expressed in Sf9 insect cells and purified via affinity chromatography using Glutathion Sepharose as described above, was used as kinase. As substrate for the kinase reaction the biotinylated peptide biotin-Ahx-[…] (C-terminus in amide form) was used which can be purchased e.g. form the company Biosynthan GmbH (Berlin-Buch, Germany).
For the assay 50 nl of a 100 fold concentrated solution of the test compound in DMSO was pipetted into either a black low volume 384 well microtiter plate or a black 1536 well microtiter plate (both Greiner Bio-One, Frickenhausen, Germany), 2 μL of a solution of EGFR in aqueous assay buffer [50 mM Hepes pH 7.0, 10 mM MgCl2, 1 mM dithiothreitol, 0.5 mM EGTA, 0.3 mM activated sodium ortho-vanadate, 0.005% (w/v) bovine serum albumin, 0.005% (v/v) Tween-20] were added and the mixture was incubated for 15 min at 22° C. to allow pre-binding of the test compounds to the enzyme before the start of the kinase reaction. […] The concentration of EGFR was adjusted depending of the activity of the enzyme lot and was chosen appropriate to have the assay in the linear range, typical concentration was […]. The reaction was stopped by the addition of 3 μL of a solution of HTRF detection reagents (83.3 nM streptavidine-XL665 [Cisbio Bioassays, Codolet, France] and 1.67 nM PT66-Tb-Cryptate, a terbium-cryptate labelled anti-phospho-tyrosine antibody from Cisbio Bioassays [instead of the PT66-Tb-cryptate PT66-Eu-Chelate from Perkin Elmer can also be used]) in an aqueous EDTA-solution (133.3 mM EDTA, 0.2% (w/v) bovine serum albumin in 50 mM HEPES pH 7.5).
The resulting mixture was incubated 1 h at 22° C. to allow the binding of the biotinylated phosphorylated peptide to the streptavidine-XL665 and the PT66-Tb-Cryptate. Subsequently the amount of phosphorylated substrate was evaluated by measurement of the resonance energy transfer from the PT66-Tb-Cryptate to the streptavidine-XL665. Therefore, the fluorescence emissions at 620 nm and 665 nm after excitation at 337 nm were measured in a HTRF reader, e.g. a Pherastar (BMG Labtechnologies, Offenburg, Germany) or a Viewlux (Perkin-Elmer). The ratio of the emissions at 665 nm and at 622 nm was taken as the measure for the amount of phosphorylated substrate.

Sequence of wild-type Epidermal Growth Factor Receptor (EGFR) (P00533 669-1210): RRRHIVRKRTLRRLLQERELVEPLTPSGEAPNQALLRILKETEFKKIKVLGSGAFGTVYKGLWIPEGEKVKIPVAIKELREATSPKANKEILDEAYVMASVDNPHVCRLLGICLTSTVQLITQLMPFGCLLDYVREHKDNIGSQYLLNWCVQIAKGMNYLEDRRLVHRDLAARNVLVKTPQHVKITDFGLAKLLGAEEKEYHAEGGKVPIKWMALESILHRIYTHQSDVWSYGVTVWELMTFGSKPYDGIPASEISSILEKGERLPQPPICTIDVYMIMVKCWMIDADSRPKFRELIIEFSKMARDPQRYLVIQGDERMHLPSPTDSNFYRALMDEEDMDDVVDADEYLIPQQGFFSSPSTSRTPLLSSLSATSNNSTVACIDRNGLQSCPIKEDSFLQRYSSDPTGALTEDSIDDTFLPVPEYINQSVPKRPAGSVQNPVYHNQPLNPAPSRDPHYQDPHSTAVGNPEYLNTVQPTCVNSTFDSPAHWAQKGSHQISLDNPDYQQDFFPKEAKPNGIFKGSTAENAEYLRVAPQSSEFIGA

SMILES	IC50
CC(C(=O)Nc1cc(-c2[nH]c3c(c2-c2ccccc2)C(=O)N(C)C2(CCC2)C3)ccn1)c1ccc(F)cc1 (racemic) [Example 052, 2-(4-fluorophenyl)-N-[4-(5′-methyl-4′-oxo-3′-phenyl-1′,4′,5′,7′-tetrahydrospiro[cyclobutane-1,6′-pyrrolo[3,2-c]pyridin]-2′-yl)pyridin-2-yl]propanamide]	> 20 µM
Cc1cn(C)c(=O)c2c(-c3ccccc3)c(-c3ccnc(NC(=O)C(C)c4ccc(F)cc4)c3)[nH]c12 (racemic) [Example 038, N-[4-(5,7-dimethyl-4-oxo-3-phenyl-4,5-dihydro-1H-pyrrolo[3,2-c]pyridin-2-yl)pyridin-2-yl]-2-(4-fluorophenyl)propanamide]	> 20 µM
CN1CC(CC2CC2)c2[nH]c(-c3ccnc(NC(=O)Cc4ccc(F)cc4)c3)c(-c3ccc(F)cc3)c2C1=O (racemic) [Example 061, N-{4-[7-(cyclopropylmethyl)-3-(4-fluorophenyl)-5-methyl-4-oxo-4,5,6,7-tetrahydro-1H-pyrrolo[3,2-c]pyridin-2-yl]pyridin-2-yl}-2-(4-fluorophenyl)acetamide]	0.818 µM
CC(C(=O)Nc1cc(-c2[nH]c3c(c2-c2ccccc2)C(=O)NCC3(C)C)ccn1)c1ccc(F)cc1 (single isomer, unassigned) [Example 047, N-[4-(7,7-dimethyl-4-oxo-3-phenyl-4,5,6,7-tetrahydro-1H-pyrrolo[3,2-c]pyridin-2-yl)pyridin-2-yl]-2-(4-fluorophenyl)propanamide]	> 20 µM
CC(C(=O)Nc1cc(-c2[nH]c3c(CC4CC4)cn(C)c(=O)c3c2-c2ccc(F)cc2)ccn1)c1ccc(F)cc1 (racemic) [Example 063, N-{4-[7-(cyclopropylmethyl)-3-(4-fluorophenyl)-5-methyl-4-oxo-4,5-dihydro-1H-pyrrolo[3,2-c]pyridin-2-yl]pyridin-2-yl}-2-(4-fluorophenyl)propanamide]	> 20 µM
Cn1ccc2[nH]c(-c3ccnc(NC(=O)C(CC(F)F)c4ccc(F)cc4)c3)c(-c3ccccc3)c2c1=O (single isomer, unassigned) [Example 008, 4,4-difluoro-2-(4-fluorophenyl)-N-[4-(5-methyl-4-oxo-3-phenyl-4,5-dihydro-1H-pyrrolo[3,2-c]pyridin-2-yl)pyridin-2-yl]butanamide]	7.82 µM and 7.83 µM and > 20 µM (2×)
CN1CCc2[nH]c(-c3ccnc(NC(=O)C(CC(F)F)c4ccc(F)cc4)c3)c(-c3cccnc3)c2C1=O (single isomer, unassigned) [Example 010, 4,4-difluoro-2-(4-fluorophenyl)-N-{4-[5-methyl-4-oxo-3-(pyridin-3-yl)-4,5,6,7-tetrahydro-1H-pyrrolo[3,2-c]pyridin-2-yl]pyridin-2-yl}butanamide]	> 20 µM
CC(C(=O)Nc1cc(-c2[nH]c3c(CC4CC4)cn(C)c(=O)c3c2-c2ccccc2)ccn1)c1ccc(F)cc1 (racemic) [Example 058, N-{4-[7-(cyclopropylmethyl)-5-methyl-4-oxo-3-phenyl-4,5-dihydro-1H-pyrrolo[3,2-c]pyridin-2-yl]pyridin-2-yl}-2-(4-fluorophenyl)propanamide]	> 20 µM

same assay, conditions: read-out: EGFR Wildtyp 2 mM ATP IC50 [mol/l] (median), median or individual measurements

SMILES	IC50 [µM]
CC(C(=O)Nc1cc(-c2[nH]c3c(c2-c2ccccc2)C(=O)N(C)CC3CC(F)(F)F)ccn1)c1ccc(F)cc1 (stereo not drawn) [Example 013]	> 20
CN1CC(CC2CC2)c2[nH]c(-c3ccnc(NC(=O)C(CC(F)F)c4ccc(F)cc4)c3)c(-c3ccccc3)c2C1=O (stereo not drawn) [Example 059]	> 20
CC(C(=O)Nc1cc(-c2[nH]c3c(c2-c2ccc(F)cc2)C(=O)N(C)CC3CC2CC2)ccn1)c1ccc(F)cc1 (stereo not drawn) [Example 062]	> 5.71
CC1CN(C)C(=O)c2c1[nH]c(-c1ccnc(NC(=O)C(C)c3ccc(F)cc3)c1)c2-c1ccc(F)cc1 (stereo not drawn) [Example 029]	> 20
